ChEMBL document CHEMBL1130972, “Sugar-substituted 2-azetidinones as cholesterol absorption inhibitors” (1998)

Tests used:
[1] = tested on: Cricetinae gen. sp.; test: Tested for inhibition of liver cholesterol esters absorption in cholesterol-fed hamsters at a oral dose of 10 mg/Kg/day; format: functional, Cricetulus griseus
[2] = tested on: Cricetinae gen. sp.; test: Tested for inhibition of serum cholesterol absorption in cholesterol-fed hamsters at a oral dose of 10 mg/Kg/day; format: functional, hamster
[3] = tested on: Cricetinae gen. sp.; test: Tested for inhibition of liver cholesterol esters absorption in cholesterol-fed hamsters at a oral dose of 8 mg/Kg/day; format: functional, Cricetulus griseus
[4] = tested on: Cricetinae gen. sp.; test: Tested for inhibition of serum cholesterol absorption in cholesterol-fed hamsters at a oral dose of 8 mg/Kg/day; format: functional, Cricetulus griseus

| Structure (SMILES) | Reduction [1] | Reduction [2] | Reduction [3] | Reduction [4] |
| --- | --- | --- | --- | --- |
| COc1ccc([C@@H]2[C@@H](CCCc3ccccc3)C(=O)N2c2ccc(OC)cc2)cc1 [SCH-48461] | -93% | -43% | – | – |
| COc1ccc(N2C(=O)[C@H](CCCc3ccccc3)[C@H]2c2ccc(O)cc2)cc1 | -70% | -25% | – | – |
| COC(=O)[C@H]1O[C@@H](Oc2ccc([C@@H]3[C@@H](CCCc4ccccc4)C(=O)N3c3ccc(OC)cc3)cc2)[C@H](O)[C@@H](O)[C@@H]1O | – | – | -62% | -23% |
| COc1ccc(N2C(=O)[C@H](CCCc3ccccc3)[C@H]2c2ccc(O[C@@H]3O[C@H](COCc4ccccc4)[C@@H](OCc4ccccc4)[C@H](OCc4ccccc4)[C@H]3OCc3ccccc3)cc2)cc1 | -21% | -9% | – | – |
| COc1ccc(N2C(=O)[C@H](CCCc3ccccc3)[C@H]2c2ccc(OC[C@H]3O[C@H](OC)[C@H](O)[C@@H](O)[C@@H]3O)cc2)cc1 | -48% | -10% | – | – |
| COc1ccc(N2C(=O)[C@H](CCCc3ccccc3)[C@H]2c2ccc(O[C@@H]3O[C@H](CO)[C@@H](O)[C@H](O)[C@H]3O)cc2)cc1 | -86% | -29% | – | – |
| COc1ccc(N2C(=O)[C@H](CCCc3ccccc3)[C@H]2c2ccc(O[C@@H]3O[C@H](C(=O)O)[C@@H](O)[C@H](O)[C@H]3O)cc2)cc1 | -9% | -10% | – | – |
